# Laboratory results as given in patent US6274627A, “Conjugates of dithiocarbamate disulfides with pharmacologically active agents and uses therefor” (Medinox, Inc., priority 1999, dated 2001).
# Entries after “also recorded” stand apart in the source; their conditions may differ.
# How the values were obtained:
# [1] = tested on: esterase; assay: Enzymatic hydrolysis of PDD-NSAIDs by esterase; format: in vitro ADME; conditions: for time within which the compound was decomposed into two compounds: esterase, PBS buffer, as described for compound 12
# Method: The resulting solution was put in a water bath (37° C.) for 30 min and then at room temperature overnight.
# [2] = tested on: cancer patients; conditions: cancer patients receiving adriamycin chemotherapy; cited from earlier work
# [3] = iron-ICRF-187 complex, Fenton reaction; cited from earlier work
# [4] = tested on: male Sprague-Dawley rats (stomach, gastric lesions); assay: Gastric erosions in the rat gastropathy model; format: in vivo; conditions: oral; for length of the lesions (most of the lesions): corpus of the stomach; for number of gastric lesions, dose dependence: naproxen 15 and 30 mg/kg, PDD-Naproxen 27 & 54 mg/kg (equimolar)
# [5] = tested on: Lewis male rats (M. tuberculosis adjuvant-induced arthritis); assay: Chronic inflammation: rat adjuvant arthritis model; format: in vivo; conditions: for reduction of swelling compared to control by day 15: oral high doses: naproxen 10 mg/kg, days 5-8 and 11-14
# Method: Thus, paw volume increases (measured with a Plethysmometer) are reported as a function of time, and were measured in the injected feet of Lewis male rats in which arthritis was induced by intradermel injection of adjuvant into the footpad.
# NSAIDs are useful in both chronic and acute inflammatory conditions. Efficacy in chronic inflammation can be estimated using the rat adjuvant arthritis model (Blackham et al. supra). In this model Lewis male rats (175-250 g) were injected intradermally in the footpad with M. tuberculosis powder suspended in mineral oil at 5 mg/ml. Progressive swelling of the uninjected paw and ankle joint between days 11 and 15 was measured by plethysmometry.
# [6] = tested on: male Sprague-Dawley rats (carrageenan-injected paw); assay: Acute inflammation: rat carrageenan-induced hindlimb edema model; format: in vivo
# Method: Efficacy of NSAIDs in acute inflammation can be estimated by using intraplantar injection of carrageenan in the rat. Male Sprague-Dawley rats (200-250 g) were injected intradermally in the footpad with 50 μl of a 1% carrageenan solution in PBS. Swelling of the injected paw was measured at 2, 3, 5 & 7 hours using a plethysmometer.
# [7] = Plasma pharmacokinetics of naproxen following oral administration of PDD-Naproxen or naproxen in rats
# [8] = tested on: gastrointestinal toxicity; conditions: in vivo; cited from earlier work
# [9] = tested on: COX-2; conditions: cited from earlier work
# [10] = tested on: nuclear factor kappa B; conditions: intact cells; cited from earlier work
# [11] = PDD-Naproxen (NOX-319) 18 mg/kg
smiles,measurement,setting,value
CC(C)Cc1ccc(C(C)C(=O)OCCCOC(=O)[C@@H]2CCCN2C(=S)SSC(=S)N2CCC[C@H]2C(=O)OCCCOC(=O)C(C)c2ccc(CC(C)C)cc2)cc1 (stereo partly shown) [Compound 16],time within which the compound was decomposed into two compounds,[1],≤ 5 h
CC(C(=O)OCCCOC(=O)[C@@H]1CCCN1C(=S)SSC(=S)N1CCC[C@H]1C(=O)OCCCOC(=O)C(C)c1cccc(C(=O)c2ccccc2)c1)c1cccc(C(=O)c2ccccc2)c1 (stereo partly shown) [Compound 20],time within which the compound was decomposed into two compounds,[1],≤ 5 h
COc1ccc2c(c1)c(CC(=O)OCCCOC(=O)[C@@H]1CCCN1C(=S)SSC(=S)N1CCC[C@H]1C(=O)OCCCOC(=O)Cc1c(C)n(C(=O)c3ccc(Cl)cc3)c3ccc(OC)cc13)c(C)n2C(=O)c1ccc(Cl)cc1 [Compound 24],time within which the compound was decomposed into two compounds,[1],≤ 5 h
C[C@@H](CN1CC(=O)NC(=O)C1)N1CC(=O)NC(=O)C1 [ICRF-187],"removal of iron from the anthracycline-iron complex, preventing cardiac toxicity",[2],"effective for the removal of iron from the anthracycline-iron complex, therefore preventing the cardiac toxicity"
same,promotion of hydroxyl radical generation,[3],very effective at promoting hydroxyl radical generation
"COc1ccc2cc([C@H](C)C(=O)O)ccc2c1 [Naproxen, (S)-(+)-methoxy-α-methyl-2-naphthaleneacetic acid, reference compound]",length of the lesions (most of the lesions),[4],less than 2 mm
same,"number of gastric lesions, dose dependence",[4]; 3 h,dose-related number of lesions
same,reduction of swelling compared to control by day 15,[5]; [11],approximately 70%
COc1ccc2cc(C(C)C(=O)OCCCOC(=O)C3CCCN3C(=S)SSC(=S)N3CCCC3C(=O)OCCCOC(=O)C(C)c3ccc4cc(OC)ccc4c3)ccc2c1 (stereo not shown) [PDD-Naproxen],decomposition by esterase,"[1]; 33.3 units esterase in PBS buffer, 37° C. for 30 min, then room temperature overnight",decomposed into two compounds
same,"gastric safety / tendency to cause gastric erosions, overall",[4]; relative to naproxen,has the ability to reduce the number of erosions in the corpus of the stomach; also recorded: tendency to cause gastric erosions is reduced; also recorded: improved gastric safety
same,"number of gastric erosions, low dose","[4]; PDD-Naproxen 27 mg/kg vs naproxen 15 mg/kg, 6 animals in each group","fewer erosions than the low dose of naproxen, but statistical significance was not achieved"
same,"number of gastric lesions, high dose","[4]; PDD-Naproxen 54 mg/kg vs naproxen 30 mg/kg, 3 h",significantly fewer lesions than the high dose naproxen group (ANOVA; p<0.005)
same,length of the lesions (most of the lesions),[4],less than 2 mm
same,"number of gastric lesions, dose dependence",[4]; 3 h,dose-related number of lesions
same,reduction in paw swelling,"[6]; oral 1 h before carrageenan, naproxen 10 mg/kg or PDD-Naproxen 18 mg/kg (equimolar)","reduced inflammation significantly at 2 and 3 hours, but started to wear off by 5 hours"
same,"acute antiinflammatory activity, overall","[6]; oral, carrageenan model","orally active in rats, but slightly less effective vs acute inflammation than the parent drug; also recorded: antiinflammatory activity similar to naproxen; also recorded: alleviation of acute inflammation"
same,reduction of swelling compared to control by day 15,[5]; [11],approximately 70%
same,"chronic antiinflammatory effect, overall","[5]; oral, equimolar doses, vs naproxen",antiinflammatory activity similar to naproxen; also recorded: antiinflammatory effects equal to those of naproxen; also recorded: effectiveness of PDD-Naproxen in the treatment of adjuvant-induced arthritis
same,"effect on swelling by day 15, lower doses","[5]; oral, naproxen 1 mg/kg, PDD-Naproxen (NOX-319) 1.8 mg/kg",slight effect by day 15
same,"reduction of swelling on days 13 through 15, high doses","[5]; oral, naproxen 10 mg/kg, PDD-Naproxen (NOX-319) 18 mg/kg",comparable reduction of swelling
same,"naproxen pharmacokinetic profile, overall","[7]; oral or IV, vs naproxen itself",better naproxen pharmacokinetic profiles than naproxen itself
same,"AUCinf comparison, oral","[7]; oral, PDD-Naproxen vs naproxen",no significant difference
COc1ccc2cc(CCC(C)=O)ccc2c1 [nabumetone],gastrointestinal toxicity relative to other NSAIDs on the market,[8],reduced gastrointestinal toxicity
same,selectivity for COX-2,[9],marked selectivity for COX-2
S=C(S)N1CCCC1 [pyrrolidine dithiocarbamate],inhibition of nuclear factor kappa B,[10],potent inhibitors of nuclear factor kappa B
